{
  "source": "patent US6706715B2",
  "about": "“Urea derivatives with antiproteolytic activity” (Aventis Pharma Deutschland GmbH, priority 2001, dated 2004)",
  "data": [
    {"target": "T1, factor VIIa/tissue factor (Homo sapiens, UniProt P08709)", "T1 construct": "human factor VIIa and TF", "T1 sequence (P08709 213-466 limits assumed)": "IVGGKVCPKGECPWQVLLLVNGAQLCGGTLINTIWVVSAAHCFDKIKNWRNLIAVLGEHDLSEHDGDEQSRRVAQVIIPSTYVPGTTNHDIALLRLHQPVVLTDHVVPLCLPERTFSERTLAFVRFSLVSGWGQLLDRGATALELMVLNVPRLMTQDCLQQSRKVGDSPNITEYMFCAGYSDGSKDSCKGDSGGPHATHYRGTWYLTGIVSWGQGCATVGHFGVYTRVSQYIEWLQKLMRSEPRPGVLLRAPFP", "T1 sequence (P08709 61-212 limits assumed)": "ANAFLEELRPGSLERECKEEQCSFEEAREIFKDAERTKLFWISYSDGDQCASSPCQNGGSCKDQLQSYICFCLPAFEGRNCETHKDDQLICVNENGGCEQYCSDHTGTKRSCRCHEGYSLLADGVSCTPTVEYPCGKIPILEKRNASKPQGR", "T1 sequence (P13726 33-295 partner)": "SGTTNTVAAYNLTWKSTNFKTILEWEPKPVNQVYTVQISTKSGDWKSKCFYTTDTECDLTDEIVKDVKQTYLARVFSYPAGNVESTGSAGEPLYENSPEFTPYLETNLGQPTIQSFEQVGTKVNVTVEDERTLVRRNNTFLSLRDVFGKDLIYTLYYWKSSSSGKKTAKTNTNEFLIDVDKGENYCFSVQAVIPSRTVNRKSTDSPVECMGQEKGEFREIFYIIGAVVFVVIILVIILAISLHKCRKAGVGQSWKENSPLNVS", "assay": "Factor VIIa (FVIIa) chromogenic assay", "assay_type": "biochemical", "conditions": "human factor VIIa 5 nM and TF 10 nM; chromogenic substrate S-2288 500 μM; 25° C.; 15 minute preincubation; pH 8.15", "description": "The ability of the compounds of the formula I to inhibit factor VIIa or other enzymes like factor Xa, thrombin, plasmin, or trypsin can be assessed by determining the concentration of the compound of the formula I that inhibits enzyme activity by 50%, i.e. the IC50 value, which is related to the inhibition constant Ki. Purified enzymes are used in chromogenic assays. The concentration of inhibitor that causes a 50% decrease in the rate of substrate hydrolysis is determined by linear regression after plotting the relative rates of hydrolysis (compared to the uninhibited control) versus the log of the concentration of the compound of formula I. For calculating the inhibition constant Ki, the IC50 value is corrected for competition with substrate using the formula\nKi=IC50/{1+(substrate concentration/Km)}\nwherein Km is the Michaelis-Menten constant (Chen and Prusoff, Biochem. Pharmacol. 22 (1973), 3099-3108; I. H. Segal, Enzyme Kinetics, 1975, John Wiley & Sons, New York, 100-125; which are incorporated herein by reference).\na) Factor VIIa (FVIIa) Assay\nThe inhibitory activity (expressed as inhibition constant Ki(FVIIa)) of the compounds of formula I towards factor VIIa/tissue factor activity was determined using a chromogenic assay essentially as described previously (J. A. Ostrem et al., Biochemistry 37 (1998) 1053-1059 which is incorporated herein by reference). Kinetic assays were conducted at 25° C. in half-area microtiter plates (Costar Corp., Cambridge, Mass.) using a kinetic plate reader (Molecular Devices Spectramax 250). A typical assay consisted of 25 μl human factor VIIa and TF (5 nM and 10 nM, respective final concentration) combined with 40 μl of inhibitor dilutions in 10% DMSO/TBS-PEG buffer (50 mM Tris, 15 mM NaCl, 5 mM CaCl2, 0.05% PEG 8000, pH 8.15). Following a 15 minute preincubation period, the assay was initiated by the addition of 35 μl of the chromogenic substrate S-2288 (D-Ile-Pro-Arg-p-nitroanilide, Pharmacia Hepar Inc., 500 μM final concentration).", "units": {"Ki": "µM"}, "values": [
      {"smiles": "CC(Nc1ccccc1NC(=O)Nc1ccc(C(=N)N)cc1)c1ccccc1", "note": "(stereo not drawn) [Example 2, 4-{3-[2-(1-Phenyl-ethylamino)-phenyl]-ureido}-benzamidin]", "Ki": 0.7},
      {"smiles": "CC(Nc1ccccc1NC(=O)Nc1ccc(C(=N)N)cc1)c1ccc(C(=O)N2CCOCC2)cc1", "note": "(stereo not drawn) [Example 5, 4-[3-(2-{1-[4-(morpholine-4-carbonyl)-phenyl]-ethylamino}-phenyl)-ureido]-benzamidine acetate]", "Ki": 0.188},
      {"smiles": "C[C@@H](Nc1ccccc1NC(=O)Nc1ccc(C(=N)N)cc1)c1ccccc1", "note": "[Example 15]", "Ki": 0.103},
      {"smiles": "CC(Nc1ccccc1CNC(=O)Nc1ccc(C(=N)N)cc1)c1cccc(C(F)(F)F)c1", "note": "(stereo not drawn) [Example 18]", "Ki": 44.4},
      {"smiles": "CC(Nc1ccccc1NC(=O)Nc1ccc(C(=N)N)cc1)c1ccc(C(=O)Nc2cccc(S(C)(=O)=O)c2)cc1", "note": "(stereo not drawn) [Example 19]", "Ki": 0.051},
      {"smiles": "CC(Nc1ccccc1NC(=O)Nc1ccc(C(=N)N)cc1)c1ccc(C(=O)NCc2ccc(S(C)(=O)=O)cc2)cc1", "note": "(stereo not drawn) [Example 24]", "Ki": 0.098},
      {"smiles": "CC(Nc1ccccc1NC(=O)Nc1ccc(C(=N)N)cc1)c1ccc(C(=O)Nc2csc(-c3ccccc3)c2)cc1", "note": "(stereo not drawn) [Example 30]", "Ki": 0.282},
      {"smiles": "CC(Nc1ccccc1NC(=O)Nc1ccc(C(=N)N)cc1)c1ccc(C(=O)NC2CCCCC2)cc1", "note": "(stereo not drawn) [Example 37]", "Ki": 0.056},
      {"smiles": "CC(Nc1ccccc1NC(=O)Nc1ccc(C(=N)N)cc1)c1ccc(C(=O)Nc2ccc(C(F)(F)F)cc2)cc1", "note": "(stereo not drawn) [Example 39]", "Ki": 0.935}
    ]}
  ]
}
